Experiment: solid-form stability of Compound A (humidity, temperature, air)
Format: physicochemical

relative humidity at which the monohydrate crystalline solid reversibly dehydrates (monohydrate crystalline solid isolated in Example 8) | temperature up to which the monohydrate form is stable and robust (monohydrate form, solid) | SMILES | stability to air, moisture and elevated temperature (isolated as salt form (e.g., HCl salt) or monohydrate form)
< 11 % RH | – | COCCOc1cnc2ccn([C@H](C)c3nnc4c(F)cc(-c5cnn(C)c5)cn34)c(=O)c2c1 [Compound A, (R)-6-(1-(8-fluoro-6-(1-methyl-1H-pyrazol-4-yl)-[1,2,4]triazolo[4,3-a]pyridin-3-yl)ethyl)-3-(2-methoxyethoxy)-1,6-naphthyridin-5(6H)-one] | stable to air, moisture, and elevated temperature
– | up to 50 °C | COCCOc1cnc2ccn([C@H](C)c3nnc4c(F)cc(-c5cnn(C)c5)cn34)c(=O)c2c1 [monohydrate form of Compound A] | –

Reference: US9643984B2, “Method for the preparation of [1,2,4]-triazolo[4,3-a]pyridines” (AMGEN, INC., priority 2013, dated 2017)
